The text below walks through data of ChEMBL document CHEMBL5727820, “Substituted carbonucleoside derivatives useful as anticancer agents” (2020).

Where “and” joins values, the source holds several entries; their conditions need not be identical. Identical values can stand only once.

The nature of the experiment: Biochemical Assay: Compounds were solubilized in DMSO and serially diluted, using 3-fold dilutions, into 100% DMSO at a concentration 50-fold greater than the desired assay concentration. Following dilution, 1 ul was added to an empty 96-well microtiter plate. PRMT5/MEP50 protein complex was combined with H4(1-21) peptide ([…]) in PRMT5 assay buffer (50 mM Tris pH 8.5, 50 mM NaCl, 5 mM MgCl2, 1 mM EDTA, 1 mM TCEP) and 44 ul was added to the microtiter plate containing compound. S-Adenosyl-L-methionine (SAM) was prepared by combining 3H labelled SAM with unlabelled SAM in PRMT5 assay buffer such that the final SAM concentration was 10 uM and the specific activity was 0.2 uCi/ul. The reaction was initiated by adding 5 ul of SAM stock to the microtiter plate. The final reaction conditions were 10 nM PRMT5/MEP50 complex, 200 nM peptide and 1 uM SAM. Following a 25 minute incubation at room temperature, the reaction was stopped with the addition of 100 uL of 20% TCA. The 3H-peptide product was captured using a 96-well filter plate (MSIPN4B, Millipore) and washed 5 times with PBS buffer. Scintillation fluid (100 ul) was added to the dried filter plate and counted in a liquid scintillation counter. IC50 values were determined by fitting the data to the standard 4-parameter dose response equation using Pfizer proprietary software.
As usually defined, the IC50 is the concentration that gives 50% inhibition. Take `Cc1nc(N)nc2c1ccn2[C@@H]1C[C@H]([C@@H](O)c2ccc(F)c(F)c2)[C@@H](O)[C@H]1O`: the IC50 was determined as 5 nM.
The value for `Cc1nc(N)c2c(C)cn([C@@H]3C[C@H](Oc4cc(F)c(F)c5c4CNCC5)[C@@H](O)[C@H]3O)c2n1` was 1 nM; that for `O[C@@H]1[C@H](O)[C@H]([C@H](O)c2ccc(F)c(F)c2)C[C@H]1Nc1ncnc2[nH]ccc12` was 5770 nM; that for `Cc1cc(N[C@H]2C[C@@H](Oc3ccc(F)cc3C#N)[C@H](O)[C@@H]2O)ncn1` was over 200000 nM.
As for `N#Cc1cccc2c(N[C@H]3C[C@H](C(O)c4ccc(F)c(F)c4)[C@@H](O)[C@H]3O)ncnc12` (some centres not stated), the IC50 is over 200000 nM.
For the compound `Cc1ncnc2c1ccn2[C@@H]1C[C@H](Oc2ccccc2CN)[C@@H](O)[C@H]1O`, the IC50 was 1060 nM.
In the case of `Cc1ncnc2c1ccn2[C@@H]1C[C@H]([C@@H](O)c2ccc(F)cc2)[C@@H](O)[C@H]1O`, the IC50 was 289 nM.
Turning to `Cc1nccc(N[C@@H]2C[C@H]([C@H](O)c3ccc(F)c(F)c3)[C@@H](O)[C@H]2O)n1`, the IC50 was found to be 150 nM.
The same measure for `Cc1ncnc2c1ccn2[C@@H]1C[C@H]([C@H](F)c2ccc(F)cc2)[C@@H](O)[C@H]1O`: 217 nM; for `O[C@@H]1[C@H](O)[C@@H](Oc2cccc3c2CNCC3)C[C@H]1n1cc(F)c2c(Cl)ncnc21`: 2 nM; for `Cc1cn([C@@H]2C[C@H](Oc3ccc(F)c4c3CNCC4)[C@@H](O)[C@H]2O)c2ncnc(Cl)c12`: 1 nM.
As for `Nc1ncnc2c1ccn2[C@@H]1C[C@H]([C@@H](O)c2ccc(Cl)c(F)c2)[C@@H](O)[C@H]1O`, the IC50 amounted to 572 nM.
The value for `Cc1ncnc2c1ccn2[C@@H]1CC([C@](C)(O)c2ccc(F)cc2)[C@@H](O)[C@H]1O` (some centres not stated) was 17100 nM.
The value for `Cc1ncnc2c1ccn2C1C[C@H](Oc2cccc3c2CNCC3)[C@@H](O)[C@H]1O` (some centres not stated) was 1 nM.
Turning to `CN(c1ccncn1)[C@@H]1C[C@H]([C@@H](O)c2ccc(F)c(F)c2)[C@@H](O)[C@H]1O`, the IC50 came out at 466 nM.
For `CN(c1cc(N)ncn1)[C@@H]1C[C@@H]([C@H](O)c2ccc(F)c(F)c2)[C@@H](O)[C@H]1O`, the IC50 came to 17000 nM.
The same measure for `Cc1ncnc2c1ccn2[C@@H]1C[C@H]([C@@H](CN)c2ccc(F)cc2)[C@@H](O)[C@H]1O`: 676 nM.
As for `Cc1ncnc2c1ccn2[C@@H]1C[C@H](Oc2ccc(F)cc2[C@@H](C)N)[C@@H](O)[C@H]1O`, the IC50 came out at 2 nM.
With `Cc1cc(N[C@@H]2C[C@H]([C@H](O)c3ccc(F)c(F)c3)[C@@H](O)[C@H]2O)ncn1`, the IC50 came to 3580 nM.
Turning to `Cc1cc(N[C@H]2C[C@@H](Oc3ccccc3C#N)[C@H](O)[C@@H]2O)ncn1`, the IC50 is over 200000 nM.
Consider `Cc1cc(N[C@@H]2C[C@H](Oc3ccccc3C#N)[C@@H](O)[C@H]2O)ncn1`, for which the half-maximal inhibitory concentration (IC50) was over 200000 nM.
The same measure for `Cc1cc(N[C@@H]2C[C@H]([C@@H](O)c3ccc(F)c(F)c3)[C@@H](O)[C@H]2O)ncn1`: 59500 nM; for `CO[C@@H]1C[C@H](n2ccc3c(C)ncnc32)[C@H](O)[C@@H]1O`: 2120 nM; for `Cc1ncnc2c1ccn2[C@@H]1C[C@H](Oc2ccc(F)c3c2CNC[C@@H]3C)[C@@H](O)[C@H]1O`: 2 nM.
The value for `CN(c1ccncn1)[C@@H]1C[C@@H]([C@H](O)c2ccc(F)c(F)c2)[C@@H](O)[C@H]1O` was 15700 nM; that for `Cc1ncnc2c1ccn2[C@@H]1C[C@H]([C@@H](F)c2ccc(F)cc2)[C@@H](O)[C@H]1O` was 3 nM; that for `Cc1ncnc(N(C)[C@@H]2C[C@H]([C@@H](O)c3ccc(F)c(F)c3)[C@@H](O)[C@H]2O)n1` was 297 nM.
For `Cc1ncnc2c1ccn2[C@H]1C[C@@H](Oc2ccccc2CN)[C@H](O)[C@@H]1O`, the IC50 was 25 nM.
In the case of `Cc1nc(N)nc2c1ccn2[C@@H]1C[C@@H]([C@H](O)c2ccc(F)c(F)c2)[C@@H](O)[C@H]1O`, the IC50 was 105 nM.
For the compound `CO[C@H]1C[C@H](n2ccc3c(C)ncnc32)[C@H](O)[C@@H]1O`, the IC50 was found to be 5740 nM.
Take `Cc1ncnc2c1ccn2[C@@H]1C[C@H]([C@](F)(CN)c2ccc(F)cc2)[C@@H](O)[C@H]1O`: the IC50 is 18900 nM.
The same measure for `Cc1ncnc2c1ccn2[C@@H]1C[C@H](Oc2ccc(F)c3c2CNC[C@H]3C)[C@@H](O)[C@H]1O`: 1 nM; for `Cc1ncnc2c1ccn2[C@@H]1C[C@H](Oc2ccc(F)cc2[C@H](C)N)[C@@H](O)[C@H]1O`: 123 nM; for `N#Cc1cccc2c(N[C@@H]3C[C@H](C(O)c4ccc(F)c(F)c4)[C@@H](O)[C@H]3O)ncnc12` (some centres not stated): over 200000 nM.
As to `Nc1ncnc2c1ccn2[C@@H]1C[C@@H]([C@H](O)c2ccc(Cl)c(F)c2)[C@@H](O)[C@H]1O`, the IC50 is 71 nM.
The value for `Cc1ncnc(N(C)[C@@H]2C[C@@H]([C@H](O)c3ccc(F)c(F)c3)[C@@H](O)[C@H]2O)n1` was 29500 nM; that for `Nc1ncnc2c1c(F)cn2[C@@H]1C[C@H](Oc2cccc3c2CNCC3)[C@@H](O)[C@H]1O` was 8 nM and 28 nM; that for `O[C@@H]1[C@H](O)[C@@H]([C@@H](O)c2ccc(F)c(F)c2)C[C@H]1Nc1ncnc2[nH]ccc12` was 449 nM.
With `CN(c1ncnc(N)n1)[C@@H]1C[C@H]([C@@H](O)c2ccc(F)c(F)c2)[C@@H](O)[C@H]1O`, the IC50 stood at 266 nM.
In the case of `Cc1ncnc2c1ccn2[C@@H]1C[C@@H]([C@H](CN)c2ccc(F)cc2)[C@@H](O)[C@H]1O`, the IC50 was 906 nM.
The value for `Cc1cccc(CC(O)[C@H]2C[C@@H](n3ccc4c(C)ncnc43)[C@H](O)[C@@H]2O)n1` (some centres not stated) was over 200000 nM; that for `COC(=O)c1cc(F)ccc1O[C@H]1C[C@@H](n2ccc3c(C)ncnc32)[C@H](O)[C@@H]1O` was 10200 nM.
The value for `CN(c1cc(N)ncn1)[C@@H]1C[C@H]([C@@H](O)c2ccc(F)c(F)c2)[C@@H](O)[C@H]1O` was 879 nM; that for `Cc1cc(N[C@@H]2C[C@H](Oc3ccc(F)cc3C#N)[C@@H](O)[C@H]2O)ncn1` was over 200000 nM; that for `Cc1ncnc2c1ccn2[C@@H]1C[C@H](Oc2cc(C(F)F)c(F)c3c2CNCC3)C(O)=C1O` was 1 nM.
`CN(c1ncnc(N)n1)[C@@H]1C[C@@H]([C@H](O)c2ccc(F)c(F)c2)[C@@H](O)[C@H]1O`: the IC50 turned out to be 15700 nM.
As to `Cc1ncnc2c1ccn2[C@@H]1CC([C@@](C)(O)c2ccc(F)cc2)[C@@H](O)[C@H]1O` (some centres not stated), the IC50 is 64 nM.
